Here are results for twelve molecules from patent publication US5969138A, “Pyrrolidinone derivatives” (Mitsui Chemicals, Inc., priority 1996, dated 1999).

The structures appear in SMILES notation.

For series [1], the system named is reverse tolerance development to methamphetamine (stereotyped behavior). Briefly: Effect on reverse tolerance development due to repetitive administration of methamphetamine. The class given is in vivo, rat (male Std:Wistar(ST)). Particulars: rat. As for the experimental part: Evaluation Example 6 (Effect to reverse tolerance development due to repetitive administration of methamphetamine) For the experiment, male Std:Wistar(ST) rat (Nippon SLC) aged 5 weeks were used. A test drug, the compound of formula (IV) described in JP-A 7-252219 or the compound of formula (V) described in JP-A 9-40667 was dissolved in purified water or 0.5% C.M.C./saline. Methamphetamine (mAMP) was dissolved in saline. Dosage volume was 1 mL/kg body weight.
The drugs were repetitively administered for 10 days with a regimen that to a rat, a test drug was orally or intraperitoneally administered and after 60 min mAMP was intraperitoneally administered in a dose of 2 mg/kg. To a normal group, solvent alone was administered in place of the combination of the test drug and mAMP. To a control group, solvent was orally or intraperitoneally administered, and then intraperitoneally mAMP was additionally administered.
After the repetitive administration, there was provided a withdrawal period for 7 days during which the test drug or mAMP was not administered. After the withdrawal, the test drug was discontinued and mAMP was administered in a dose of 2 mg/kg, and then stereotyped behavior of the animal was observed.
After administering mAMP, stereotyped behavior was rated in accordance with the following scale, for 1 min every 10 min until 60 min.
The results are expressed as an inhibition (%) of reverse tolerance development calculated from the following equation, using a total score for six minutes: Inhibition of reverse tolerance development (%)=100-A […]
wherein A represents a value calculated from the following equation:
A=[{(Score for the test drug group)-(Score for the normal group)}/{(Score for the control group)-(Score for the normal group)}]×100

The nature of another series: Blood kinetics. Type of series: in vivo, dog (male beagle). Particulars: 10 mg/kg, plasma; for Cmax / half-life: beagle dog; for Cmax: HPLC; for bioavailability: dog, po, read-out: Extent of Bioavailability; for half-life: estimated from intravenous administration. As for the experimental part:
Evaluation Example 7 (Blood kinetics)
For the experiment, male beagle dogs were employed. A test drug was intravenously or orally administered in a dose of 10 mg/kg. Blood samples were collected at 0.25, 0.5, 1, 2, 4, 6 and 24 hours after administering the test drug, and the samples were centrifuged to separate plasma, for which a plasma level of the test drug was determined by HPLC. Half-life of the test drug in blood was estimated from the results at the intravenous administration. An extent of bioavailability is expressed as a rate of AUC at the oral administration to AUC at the intravenous administration.

In series [2] the test system is head weaving behavior induced by a receptor agonist SKF-10047. The series is described as follows: Persistence of anti-SKF effect (SKF-10047 4 hours after test drug). Conditions: mouse, oral, SKF-10047 20 mg/kg s.c. 4 hours after test drug. Type of series: in vivo, mouse (male ddY). As for the experimental part: Evaluation Example 5 (Persistence of anti-SKF effect) Procedure
Persistence of antipsychotic activity for a test drug was studied by means of head weaving behavior induced by a receptor agonist SKF-10047 for a mouse. For the experiment were used 10 male ddY mice aged 5 weeks (Nippon SLC) per a group. The mice were placed in a measuring cage and calmed 1 hour before the initiation of the test. To the mice was orally administered a test drug and after 4 hours was subcutaneously administered SKF-10047 in a dose of 20 mg/kg. After 20 min, head weaving was counted for 10 min.

Series [3] in a line: Safety: simple acute toxicity for a mouse. The class given is in vivo. As for the experimental part:
Evaluation Example 8 (Safety)
For the experiment, male Std:ddY mice aged 5 weeks were used. The mice were weighed, and then calmed in an observation cage for more than 1 hour. To the mice, a test drug was orally administered in a dose of 300 mg/kg to observe them for general symptoms until 2 hours.

For series [4], the system named is head weaving behavior induced by phencyclidine (PCP). Briefly: Anti-PCP effect: inhibition of phencyclidine-induced head weaving. Type of series: in vivo, rat (male Wistar(ST)). Particulars: oral treatment before 60 min, PCP 7.5 mg/kg i.p.; for ED50: Rattus norvegicus, po, 1 h; for ED50 Anti-PCP: rat, 60 min. As for the experimental part:
Evaluation Example 4 (Anti-PCP effect)
Antipsychotic activity for a test drug was studied by means of head weaving behavior induced by phencyclidine (PCP) for a rat. For the experiment were used male Wistar(ST) rats aged 4weeks (Nippon SLC). The rats were placed in a measuring cage and calmed 1 hour before the initiation of the test. To the rats was orally administered a test drug and after 60 min was intraperitoneally administered PCP in a dose of 7.5 mg/kg. After 20 min, head weaving was counted for 10 min. Efficacy of the drug was evaluated by determining an inhibition (%) compared with the control group from the average of the scores of the test-drug groups, and then estimating a ED50 value.

In series [5] the test system is head weaving behavior induced by a σ-receptor agonist SKF-10047. The series is described as follows: Anti-SKF effect: inhibition of SKF-10047-induced head weaving. Type of series: in vivo, mouse (male ddY). Particulars: 1 h; mouse, oral treatment before 60 min; SKF-10047 20 mg/kg s.c. As for the experimental part: Evaluation Example 3 (Anti-SKF effect)
Antipsychotic activity for a test drug was studied by means of head weaving behavior induced by a σ-receptor agonist SKF-10047 for a mouse. For the experiment were used 10 male ddY mice aged 5 weeks (Nippon SLC) per a group. The mice were placed in a measuring cage and calmed 1 hour before the initiation of the test. To the mice was orally administered a test drug and after 60 min was subcutaneously administered SKF-10047 in a dose of 20 mg/kg. After 20 min, head weaving was counted for 10 min.

In a further series the test system is sigma receptor. Particulars: background; cited from earlier work.
In another series the target is T1, D2 receptor (Rattus norvegicus, UniProt P61169).
T1 construct: from tissue; host or cells: rat cerebral striatal homogenate
T1 sequence (P61169 whole entry): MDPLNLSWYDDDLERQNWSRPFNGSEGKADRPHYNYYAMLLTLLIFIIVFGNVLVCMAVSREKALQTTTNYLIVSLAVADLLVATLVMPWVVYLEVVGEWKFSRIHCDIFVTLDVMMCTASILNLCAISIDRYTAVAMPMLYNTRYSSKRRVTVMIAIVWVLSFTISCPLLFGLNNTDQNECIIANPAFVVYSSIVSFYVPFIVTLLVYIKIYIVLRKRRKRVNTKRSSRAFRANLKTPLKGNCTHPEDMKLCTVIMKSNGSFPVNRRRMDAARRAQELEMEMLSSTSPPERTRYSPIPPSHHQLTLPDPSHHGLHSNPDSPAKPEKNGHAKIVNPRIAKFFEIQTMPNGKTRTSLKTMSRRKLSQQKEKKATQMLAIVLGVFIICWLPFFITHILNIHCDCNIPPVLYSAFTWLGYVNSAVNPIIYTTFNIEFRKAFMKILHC
Briefly: Radioreceptor assay for D2 receptor (3H-spiperone, cerebral striatal homogenate). The class given is binding. Conditions: read-out: Affinity for a receptor, Ki D2. As for the experimental part: Evaluation Example 2 (Radioreceptor assay for D2 receptor) ^3 H-spiperone (Amersham) and a test drug were incubated with a homogenate of rat cerebral striatal site as described in D. R. Burt et al., Proc.Natl.Acad.Sci.U.S.A. 72:4655 (1975), and Ki value was determined as described in the above r radioreceptor assay.

The target in another series is T2, σ1 receptor (Cavia porcellus, UniProt Q60492).
T2 construct: prepared from a whole brain of a guinea pig without cerebellum and medulla; from tissue; host or cells: P2 fraction of guinea pig whole brain without cerebellum and medulla
T2 sequence (Q60492 whole entry): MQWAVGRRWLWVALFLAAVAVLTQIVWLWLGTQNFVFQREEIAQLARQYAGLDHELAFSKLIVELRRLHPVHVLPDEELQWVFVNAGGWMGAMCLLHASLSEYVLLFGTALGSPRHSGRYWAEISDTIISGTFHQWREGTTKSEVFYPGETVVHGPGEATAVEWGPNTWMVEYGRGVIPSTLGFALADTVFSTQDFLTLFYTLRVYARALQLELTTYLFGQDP
The series is described as follows: Radioreceptor assay for a σ1 receptor (3H-(+)pentazocine binding, whole brain P2 fraction). Particulars: guinea pig brain P2 fraction, 3 nM 3H-(+)pentazocine, room temperature, 2 hours; read-out: Affinity for a receptor, Ki σ1.

[6] abbreviates: 300 mg/kg oral, observed until 2 hours.

Turning to `COC1CCN(C[C@H]2CCN(c3ccc(Cl)cc3)C2=O)CC1` [Compd. of formula (V), reference compound], the “Inhibition of reverse tolerance” value in series [1] (10.0 mg/kg intraperitoneal) was 81.7%. In addition, in [1] (30.0 mg/kg intraperitoneal), the “Inhibition of reverse tolerance” value was 87.8%. For the same molecule, in the series “Blood kinetics”, the highest level (Cmax) was 460 ng/mL; the bioavailability (usually the share of a dose that reaches the circulation, judged against a reference dose that is usually intravenous) is 64.3%; the half-life (as a rule, the time in which the quantity being followed falls by half) is 1.5 h. Moreover, the ED50 (as a rule, the dose at which the effect has come halfway, by size or by number of responders) in [2] turned out to be 23.2 mg/kg. Moreover, in series [3] (setting [6]), the Convulsion/Treatment is on record as 1/3 and the Death/Treatment is on record as 0/3.
For the molecule `CCCCN1CCN(CC2CCN(c3cccc(C(F)(F)F)c3)C2=O)CC1` (stereo not shown) [Compound of formula (IV), reference compound], the ED50 in series [4] is 11 mg/kg; in [5], 14 mg/kg; in series [2], > 100 mg/kg. Also, the “Inhibition of reverse tolerance” value in series [1] (30.0 mg/kg intraperitoneal) came to 92.9%. For the same molecule, the Convulsion/Treatment in series [3] (setting [6]) is on record as 5/5. Also, the Death/Treatment in [3] (setting [6]) is given as 5/5.
For the molecule `C[C@@H]1CN(CCCn2c3ccccc3c3ccccc32)C[C@H](C)N1` [Rimcazole, reference compound], the “affinity or specificity to a sigma receptor” value with sigma receptor is recorded as “inadequate affinity or specificity to a sigma receptor”. Further, the Ki (usually a dissociation constant, usually derived from enzyme kinetics or from competition with a known ligand) at D2 receptor came to 11600 nM.
Regarding `COCCN1CCN(CC2CCN(c3ccc(Cl)cc3)C2=O)CC1` (stereo not shown) [compound 2], the ED50 was 1.3 mg/kg in [4] and 2.1 mg/kg in [5]. In addition, the Ki at σ1 receptor was 85 nM; at D2 receptor it was > 3300 nM. The Convulsion/Treatment in [3] (setting [6]) is on record as 0/6. For the same molecule, the Death/Treatment in [3] (in vivo, po, 300 mg/kg) was 0/6.
Take `CCOCCN1CCN(CC2CCN(c3ccc(Cl)cc3)C2=O)CC1` (stereo not shown) [compound 8]: the Ki is 14 nM on σ1 receptor and > 3300 nM on D2 receptor. Moreover, the Convulsion/Treatment in series [3] (setting [6]) was 0/3. For the same molecule, the Death/Treatment in [3] (in vivo, po, 300 mg/kg) is recorded as 0/3.
Regarding `C#CCOCCN1CCN(CC2CCN(c3ccc(Cl)cc3)C2=O)CC1` (stereo not shown) [compound 10], the Ki at σ1 receptor is 10 nM; on D2 receptor, > 3300 nM.
Consider `COCCN1CCN(CC2CCN(c3ccc(Br)cc3)C2=O)CC1` (stereo not shown) [compound 16], for which the ED50 came to 1.9 mg/kg in series [4] and 0.52 mg/kg in [5]. Moreover, the Convulsion/Treatment in series [3] (setting [6]) is recorded as 0/5. Besides, the Death/Treatment in series [3] (in vivo, po, 300 mg/kg) was 0/5.
In the case of `COCCN1CCN(CC2CCN(c3cccc(Br)c3)C2=O)CC1` (stereo not shown) [compound 18], the Ki at σ1 receptor was 7.5 nM; on D2 receptor it was > 2800 nM.
As to `COCCN1CCN(C[C@H]2CCN(c3ccc(Cl)cc3)C2=O)CC1` [compound 21], the results for the ED50 in [4], in series [5] and in [2] were 0.75 mg/kg, 0.77 mg/kg and 3.19 mg/kg, respectively. Moreover, the entries for the “Inhibition of reverse tolerance” value in [1] (7.5 mg/kg oral) and in series [1] (15.0 mg/kg oral) were 81.0% and 93.9%, respectively. In addition, the highest level in the series “Blood kinetics” (Cmax) was 1520 ng/mL. The bioavailability in the series “Blood kinetics” amounted to 83.1%. For the same molecule, the half-life in the series “Blood kinetics” was 3.5 h. Moreover, the Ki on σ1 receptor was 72 nM; on D2 receptor it was > 3900 nM. In addition, the Convulsion/Treatment in [3] (setting [6]) is reported as 0/4. Moreover, the Death/Treatment in [3] (setting [6]) is given as 0/4.
Turning to `COCCN1CCN(C[C@H]2CCN(c3ccc(Cl)cc3)C2=O)CC1` [compound 37], the “ED50 Anti-PCP” value in series [4] is given as 1.15 mg/kg.
The same measure, in the same setting: for `COCCN1CCN(C[C@H]2CCN(c3ccc(Cl)cc3)C2=O)CC1` [compound 38] the value was 1.48 mg/kg; for `COCCN1CCN(C[C@H]2CCN(c3ccc(Cl)cc3)C2=O)CC1` [compound 39], 1.08 mg/kg.
